According to US12673964B2, “Crystal of thyroid hormone B receptor agonist, process for preparing the same and use thereof” (GANNEX PHARMA CO., LTD., priority 2020, dated 2026):

Assays:
[1] = Particle size test of crystal form I (micrometer particle size analyzer MS3000, dry method); assay type: physicochemical; details: particle size analysis
Source text: The particle size conditions of the crystal form I of the compound of formula I used in the present disclosure are: name/model of detection instrument: micrometer particle size analyzer/MS3000; test method: dry method; sample injection rate: 50%; air pressure: 2.5 bar; slit width: 2.0 mm; refractive index: 1.52; absorption rate: 0.1; shade degree: 0.5% to 6%; background measurement time: 10 s; and sample measurement time: 10 s. The crystal obtained in Example 1 was subject to a particle size test in accordance with the above conditions.

[2] = Hygroscopicity test of crystal form I (dynamic moisture adsorption instrument, DVS); assay type: physicochemical; details: for Weight gain percentage at 80% relative humidity: DVS, about 28 mg of crystal
Procedure: About 28 mg of the crystal obtained in Example 1 was taken. The hygroscopicity of the crystal was determined with dynamic moisture adsorption instrument in accordance with the above conditions. The weight gain of crystal form I was within 0.2% at 80% relative humidity.

Specific Area [1]: 807.1 m^2/kg | particle size Dv10 ([1]; Dv 10): 6.41 µm | particle size Dv50 ([1]; Dv 50): 20.3 µm | particle size Dv90 ([1]; Dv 90): 48.2 µm | particle size Dv95 ([1]; Dv 95): 59.1 µm | Weight gain percentage at 80% relative humidity [2]: 0.1213% | Weight gain percentage at 80% relative humidity ([2]; listed as crystal form I): ≤ 0.2% | Hygroscopicity class ([2]; guidance principle of drug hygroscopicity, Appendix XIXJ of the Chinese Pharmacopoeia 2015): no or nearly no hygroscopicity
Compound: Cc1cc(OC[P@@]2(=O)OCC[C@@H](c3cccc(Cl)c3)O2)cc(C)c1Cc1ccc(O)c(C(C)C)c1 [Example 1]
